According to publication PMC8838898, “Identification of Novel Cannabinoid CB2 Receptor Agonists from Botanical Compounds and Preliminary Evaluation of Their Anti-Osteoporotic Effects” (Molecules, 2022):

How the values were obtained:
[1] = test system: osteoclasts derived from RAW264.7 cells; experiment: F-actin ring formation assay in osteoclasts; type: cell-based, murine
Protocol: RAW264.7 cells were incubated in a confocal culture dish (diameter, 35 mm) at adensity of 5 × 10^4 cells·dish^−1 for 24 h, treated with 25 ng·mL^−1 RANKL and the screened compounds for five days, fixed with 4% paraformaldehyde for 30 min, stained with 5 μg·mL^−1 rhodamine-conjugated phalloidin (Sigma-Aldrich Chemical Co.) at 37 °C for 40 min, washed with PBS again, and stained again with 4′,6-diamidino-2-phenylindole (DAPI, Beyotime, Shanghai, China) for 10 min at room temperature (Li et al., 2018). The F-actin ring of the osteoclasts was observed under a fluorescent microscope (Axiovert 200, Carl Zeiss, Oberkochen, Germany). The fluorescence images of the cells were processed using Zeiss ZEN software.

RAW264.7 macrophages = experiment: viability of RAW264.7 macrophages (CCK8); type: cell-based, murine; conditions: 1 μM, three days
Protocol: (§1) The murine macrophage RAW264.7 cell line, which has the potential to differentiate into osteoclasts under the induction of RANKL, was obtained from the Cell Bank of the Chinese Academy of Sciences (Shanghai, China). The cells were cultured in DMEM containing 10% (v/v), 1% (v/v) penicillin, and streptomycin (Beyotime, Shanghai, China) at 37 °C in humidified air with 5% CO2, and then subcultured every two days. For induction of the osteoclasts, RAW264.7 cells were incubated with 25 ng·mL^−1 RANKL for 72 h. Osteoclasts were identified by TRAP staining.
RAW264.7 cells were inoculated in a 96-well plate at a density of 1 × 10^4 cells per well. After a 24-h culture at 37 °C, cells were treated with the test compounds for 48 h and cell viability was determined with the CCK-8 kit according to the instructions. RAW264.7 cells were inoculated on a 96-well culture plate at a density of 1 × 10^4 cells per well, induced with […] of nuclear factor-κB receptor activator ligand (RANKL) to differentiate into osteoclasts for 72 h. […] The reaction was terminated with 1 mol·L^−1 of NaOH solution (100 μL per well) and the absorbance was determined at a wavelength of 405 nm. […]

CB2R [2] = biological target: T1, CB2R (Homo sapiens, UniProt P34972); experiment: double luciferase reporter screening system in HEK293-CB2 cells; type: cell-based
T1 construct: expressed in transfected cells; host or cells: HEK293 cells stably transfected with pIRES2-EGFP-CB2, pGL4.29 [luc2P/CRE/Hygro] and pRL-TK
T1 sequence (P34972 whole entry): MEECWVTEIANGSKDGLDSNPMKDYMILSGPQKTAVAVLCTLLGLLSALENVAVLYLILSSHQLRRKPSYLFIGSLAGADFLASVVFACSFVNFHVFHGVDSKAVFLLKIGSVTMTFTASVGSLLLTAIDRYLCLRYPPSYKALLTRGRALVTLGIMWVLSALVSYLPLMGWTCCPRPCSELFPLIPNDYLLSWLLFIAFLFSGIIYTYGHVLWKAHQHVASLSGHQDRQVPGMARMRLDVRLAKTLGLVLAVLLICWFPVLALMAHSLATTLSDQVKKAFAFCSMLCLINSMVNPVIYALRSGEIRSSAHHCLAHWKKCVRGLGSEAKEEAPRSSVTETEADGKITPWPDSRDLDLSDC
Protocol: To generate the HEK293-CB2 cells, 5 × 10^5 HEK293 cells were cultured in a 60 mm culture dish for 12 h, washed with PBS, and then transfected with Lipofectamine 3000 reagent containing a test reporter plasmid, control reporter plasmid encoding Renilla luciferase, and effector plasmid. The ratio of the transfection plasmid pIRES2-EGFP-CB2, pGL4.29 [luc2P/CRE/Hygro], and pRL-TK was 2 μg, 10 μg, and 1μg, respectively. After a 24-htransfection, cells were selected and cultured in the medium containing G418 (800 μg·mL^−1) and hygromycin (400 μg·mL^−1) for two weeks. The surviving cells were picked and expanded as HEK293-CB2R cells.
Several aspects of the high-throughput screening system were optimized to ensure efficient and accurate application of the system for high-throughput data collection. To conduct high-throughput assays in 96-well plates, the number of cells seeded per well, incubation time, drug and AM630 concentrations, and the DMSO content were optimized. The dual luciferase assay was performed as described previously. […] Subsequently, the quantitative evaluation indexes of the high-throughput screening system, including the signal-to-background ratio, S/B = Msignal/Mbackground; signal window, SW = Msignal − Mbackground; signal-to-noise ratio, S/N = (Msignal − Mbackground)/SDbackground; signal background coefficient of variation, CV(%) = 100 × SDsignal/Msignal; and Z’ factor were determined to ensure its efficient and accurate application of the system in high-throughput data collection. Here, Z′ = 1 − 3(SDsignal + SDbackground)/|Msignal − Mbackground| [25], where M represents an average of the relative luminescence value and SD is the standard deviation of M.
The HEK293-CB2 cells from 10–40 passages were separately inoculated into 96-well plates at 5 × 10^3 cells per well. […] The results were expressed as relative luminescence values.
The HEK293-CB2 cells were inoculated on a 96-well culture plate with a density of 5 × 10^3 cells per well. […] The relative luminescence value was used to express the expression of CB2R.
Furthermore, the activation of the compounds on CB2R was also verified by using the CB2R inverse agonist AM630. The HEK293-CB2 cells were inoculated on a 6-well culture plate at a density of 5 × 10^4 cells per well. […] The expression of the CB2R gene is expressed by the relative luminescence value.

[3] = test system: osteoblasts derived from mBMSC; experiment: bone mineralization nodules of osteoblasts (alizarin red staining); type: cell-based, rat; conditions: 1 μM, 14 days
Protocol: (§2) BMSCs were isolated from the femur of 1-day-old Wistar rats and cultured in a dish containing α-MEM supplemented with 10% FBS, 100 U·mL^−1 penicillin, […] streptomycin, and 1% L-Glutaminea in a humidified atmosphere of 5% CO2 for 24 h. The medium was changed every three days. The subculture cells (passage 2–4) were used for subsequent experiments. BMSCs were identified in terms of the morphological character and properties of differentiation into osteoblasts. This experiment was approved by the Bioethics Committee of Zhejiang University of Traditional Chinese Medicine.
Cells were treated as described above for 14 days to observe the bone mineralized nodule formation using alizarin red staining solution. Briefly, the cells were washed with pre-cooled PBS twice, fixed with 3.7% formaldehyde for 10 min, and stained with ARS dye (pH = 4.2) containing 40 mM alizarin redstain for 10 min. The morphology and number of bone mineralized nodules of osteoblasts were observed under a light microscope.

[4] = test system: osteoblasts derived from mBMSC; experiment: ALP activity of osteoblasts derived from BMSCs; type: cell-based, rat; conditions: 1 μM, seven days
Protocol: as §2
(§3) The BMSCs cells were inoculated in a 96-well plate at a density of 1 × 10^4 cells per well and cultured at 37 °C for 24 h. […] The optical density (OD) value was determined at 450 nm. The BMSCs cells were treated as described above and cultured for seven days to measure the ALP activity according to the kit instructions or cultured for five days to stain ALP in the osteoblasts according to the following procedures. Briefly, cells were washed with pre-cooled PBS twice and stained with the alkaline phosphatase staining solution for 30 min at 37 °C. After discarding the dye solution, cells were rinsed with distilled water three times and observed and photographed under a light microscope.

mBMSCs cells = experiment: proliferation of BMSCs (CCK8); type: cell-based, rat; conditions: 1 μM, 48 h
Protocol: as §2, §3

[5] = test system: osteoclasts derived from RAW264.7 cells; experiment: TRAP activity of osteoclasts derived from RAW264.7 cells induced with RANKL; type: cell-based, murine; conditions: 1 μM, three-day treatment; enzyme activity and cell staining
Protocol: as §1
RAW264.7 cells were inoculated in a 96-well plate at a density of 1 × 10^4 cells per well. After a 24-h culture at 37 °C, cells were treated with the test compounds for 48 h and cell viability was determined with the CCK-8 kit according to the instructions. RAW264.7 cells were inoculated on a 96-well culture plate at a density of 1 × 10^4 cells per well, induced with […] of nuclear factor-κB receptor activator ligand (RANKL) to differentiate into osteoclasts for 72 h. […] Briefly, the cells were washed with sodium thiobarbital twice, lysed with 0.1% Triton X-100 (10 μL per well) for 10 min, and then incubated with 100 μL of TRAP reaction solution (0.02 g disodium nitrophenyl phosphate and 0.1 g potassium sodium tartrate dissolved in 10 mL deionized water with pH adjusted to 3.5 by addition of 1 mol·L^−1 HCl) for 30 min at 37 °C. The reaction was terminated with 1 mol·L^−1 of NaOH solution (100 μL per well) and the absorbance was determined at a wavelength of 405 nm. The TRAP activity was expressed by the amount (mole) of p-nitrophenol produced by 100 osteoclasts. For staining, the osteoclasts were treated as described above, stained according to the instruction of the TRAP staining kit, and observed and photographed under a light microscope.

CB2R [6] = biological target: T1, CB2R; experiment: forskolin-stimulated cAMP accumulation assay in HEK293-CB2 cells; type: cell-based; conditions: forskolin 30 min, then compound 6 h, read-out: IC50 of inhibition of forskolin-stimulated cAMP
Protocol: After treatment, the cell supernatant was diluted with PBS (pH 7.2–7.4). The cells were lysed by repeated freeze–thaw cycles and being centrifuged for 20 min at 2000–3000 r.p.m. The concentration of cAMP in the cell lysate was determined according to the instructions of the cAMP kit.

Structure (SMILES) | reversal of the F-actin ring effect by AM630 ([1]; 1 μM AM630) | formation of the F-actin ring in osteoclasts ([1]; five-day treatment, phalloidin staining) | viability of RAW264.7 macrophages (RAW264.7 macrophages) | luciferase activity of HEK293-CB2 cells of passages 10, 15, 25, 35 and 40 (CB2R [2]; 1 μM, 6-h treatment) | matrix mineralization of osteoblasts derived from mBMSC [3] | ALP activity of osteoblasts derived from mBMSC [4] | proliferation of mBMSCs cells (mBMSCs cells) | TRAP activity of osteoclasts derived from RAW264.7 cells induced with RANKL [5] | IC50 (CB2R [6]) [nM] | agonistic effect on CB2R (relative luminescence / fluorescence expression in HEK293-CB2) (CB2R [2]) | reversal of the agonistic effect on CB2R by AM630 (CB2R [2])
CCCCCCC(C)(C)c1cc(OC)c([C@@H]2C=C(CO)[C@@H]3C[C@H]2C3(C)C)c(OC)c1 [HU308] | could also be reversed by AM630 | decreased the formation of the F-actin ring | had no inhibitory effects on the viability | significantly increased |  |  |  |  |  |  | 
O=c1c2cc(O)c(O)cc2oc2cc(O)c([C@@H]3O[C@H](CO)[C@@H](O)[C@H](O)[C@H]3O)c(O)c12 [Mangiferin] |  |  |  |  | increased | increased | increased | inhibited TRAP activity | 1170 | could increase the fluorescence expression | could be abated by AM630
